This is an account of results in patent US20090098066A1, “Substituted bicyclo [2.2.2] oct/5-ene compounds and their use as cooling agents” (priority 2005, published 2009).

The subject of one data set is panelists. The experiment in a line: Cooling intensity: panelists taste aqueous solutions versus menthol at 2 ppm. Type of data set: in vivo. The settings on record: aqueous solution with cooling intensity similar or slightly higher than a solution of menthol at 2 ppm.
Data set [1] relates to panelist. The data set is described as follows: Application in chewing gum, gum stick chewed by a panelist. In kind it is in vivo. The settings on record: chewing gum with 0.10 g compound in about 100 g gum, with peppermint oil; chewed for 15 minutes. How it is done: All the ingredients are mixed in the pre-warmed gum base. The mixture is spread in thick films, cooled down and cut in sticks. A gum stick is chewed by a panelist for 15 minutes. […] No off-note was observed.

In data set [2] the test system is panelist. The data set is described as follows: Application in beverage (clear lemon/lime soda), tasted by a panelist. Type of data set: in vivo. The settings on record: 1.2 mL of a 0.5% ethanolic solution in a 355 mL can of clear lemon/lime soda. As for the experimental part: 1.2 mL of a 0.5% ethanolic solution of 1-isopropyl-4-methyl-bicyclo[2.2.2]oct-5-ene-2,3-dicarbinol is added in a 355 mL (12 fl oz.) can of clear lemon/lime soda.

Data set [3] relates to panelist. The settings on record: general statement, not tested here; cited from earlier work.

The molecule “1-Isopropyl-4-methyl-bicyclo[2.2.2]oct-5-ene-2-carboxylic acid and 1-isopropyl-4-methyl-bicyclo[2.2.2]oct-5-ene-3-carboxylic acid [Example 2]” yielded a Concentration in the data set with panelists of 2 ppm.

For `CC(C)C12C=CC(C)(CC1)C(CO)C2CO` (stereo not drawn) [Example 1, 1-Isopropyl-4-methyl-bicyclo[2.2.2]oct-5-ene-2,3-dicarbinol], the cooling sensation result with panelist [1] is listed as “immediate cooling sensation is felt in all areas of the mouth”. Also, in the data set on panelist [2], the cooling sensation result was “immediate cooling sensation in the mouth” and the throat burning entry is on record as “none of the throat burning”. This molecule also displayed a Concentration in the data set on panelists of 2 ppm.

With `CCNC(=O)C1CC2(C)C=CC1(C(C)C)CC2` (stereo not drawn) [Example 4, N-ethyl 1-Isopropyl-4-methyl-bicyclo[2.2.2]oct-5-ene-2-carboxamide], the Concentration in the data set on panelists is given as 3 ppm.

In turn, `CC1=CC2C(O)CC1CC2C(C)C` (stereo not drawn) [Example 6, 7-isopropyl-5-methyl-bicyclo[2.2.2]oct-5-en-2-ol] displayed a Concentration in the data set with panelists of 5 ppm.

In the case of `CCNC(=O)C1CC(C)CCC1C(C)C` (stereo not drawn) [WS-3, N-ethyl p-menthanecarboxamide, reference compound], the “throat burning (stated as known characteristic)” value in the data set on panelist [3] is recorded as “throat burning that is characteristic”. The molecule also had a Concentration in the data set on panelists of 1.5 ppm.
